Experimental data reported in PubChem BioAssay AID1259407 (Chemical Carcinogenesis Research Information System (CCRIS), 2018).
Active and inactive are the calls of the source. How the calls were made is not given here.

Tested on: CCRIS mutagenicity, Ames/micronucleus/aberration tests
Experiment: CCRIS mutagenicity studies
[1] = Test System: AMES SALMONELLA TYPHIMURIUM, Strain/Indicator: TA98, Metabolic Activation: NONE, Method: STANDARD PLATE
[2] = Test System: AMES SALMONELLA TYPHIMURIUM, Strain/Indicator: TA100, Metabolic Activation: NONE, Method: STANDARD PLATE

## Nc1ccc2nc3ccccc3cc2c1
Test System: AMES SALMONELLA TYPHIMURIUM, Strain/Indicator: TA1535, Metabolic Activation: NONE, Method: PREINCUBATION
  mutagenic call: inactive; negative
Test System: AMES SALMONELLA TYPHIMURIUM, Strain/Indicator: TA1535, Metabolic Activation: RAT, LIVER, S-9, TETRACHLOROBIPHENYL, Method: PREINCUBATION
  mutagenic call: active; positive
Test System: AMES SALMONELLA TYPHIMURIUM, Strain/Indicator: TA1537, Metabolic Activation: NONE, Method: PREINCUBATION
  mutagenic call: active; positive
Test System: AMES SALMONELLA TYPHIMURIUM, Strain/Indicator: TA1537, Metabolic Activation: RAT, LIVER, S-9, TETRACHLOROBIPHENYL, Method: PREINCUBATION
  mutagenic call: active; positive
Test System: AMES SALMONELLA TYPHIMURIUM, Strain/Indicator: TA1538, Metabolic Activation: NONE, Method: PREINCUBATION
  mutagenic call: inactive; negative
Test System: AMES SALMONELLA TYPHIMURIUM, Strain/Indicator: TA1538, Metabolic Activation: RAT, LIVER, S-9, TETRACHLOROBIPHENYL, Method: PREINCUBATION
  mutagenic call: active; positive
Test System: AMES SALMONELLA TYPHIMURIUM, Strain/Indicator: TA1975, Metabolic Activation: RAT, LIVER, S-9, TETRACHLOROBIPHENYL, Method: PREINCUBATION
  mutagenic call: inactive; negative
Test System: AMES SALMONELLA TYPHIMURIUM, Strain/Indicator: TA1977, Metabolic Activation: NONE, Method: PREINCUBATION
  mutagenic call: inactive; negative
Test System: AMES SALMONELLA TYPHIMURIUM, Strain/Indicator: TA1977, Metabolic Activation: RAT, LIVER, S-9, TETRACHLOROBIPHENYL, Method: PREINCUBATION
  mutagenic call: active; positive
Test System: AMES SALMONELLA TYPHIMURIUM, Strain/Indicator: TA1978, Metabolic Activation: RAT, LIVER, S-9, TETRACHLOROBIPHENYL, Method: PREINCUBATION
  mutagenic call: active; positive

## CC[C@@]1(O)C[C@H](O)c2c(cc3c(c2O)C(=O)c2c(O)cccc2C3=O)[C@H]1C(=O)OC
[1]
  mutagenic call: active; positive
Test System: AMES SALMONELLA TYPHIMURIUM, Strain/Indicator: TA98, Metabolic Activation: RAT, LIVER, S-9, AROCLOR 1254, Method: STANDARD PLATE
  mutagenic call: active; positive
[2]
  mutagenic call: inactive; negative
Test System: AMES SALMONELLA TYPHIMURIUM, Strain/Indicator: TA1538, Metabolic Activation: NONE, Method: STANDARD PLATE
  mutagenic call: inactive; negative

## O=[N+]([O-])c1ccc2c(c1)nc(/C=N/OCc1ccccc1[N+](=O)[O-])n2Cc1ccc(Cl)cc1Cl
[1]
  mutagenic call: active; positive
Test System: AMES SALMONELLA TYPHIMURIUM, Strain/Indicator: TA98, Metabolic Activation: RAT, LIVER, S-9, PHENOBARBITAL AND BETA-NAPHTHOFLAVONE, Method: STANDARD PLATE
  mutagenic call: active; positive
[2]
  mutagenic call: active; positive
Test System: AMES SALMONELLA TYPHIMURIUM, Strain/Indicator: TA100, Metabolic Activation: RAT, LIVER, S-9, PHENOBARBITAL AND BETA-NAPHTHOFLAVONE, Method: STANDARD PLATE
  mutagenic call: active; positive

## C=CC(C)(O)CCC=C(C)C (stereo unspecified)
Test System: AMES SALMONELLA TYPHIMURIUM, Strain/Indicator: TA97, Metabolic Activation: NONE, Method: PREINCUBATION
  mutagenic call: inactive; negative
Test System: AMES SALMONELLA TYPHIMURIUM, Strain/Indicator: TA97, Metabolic Activation: RAT, LIVER, S-9, AROCLOR 1254, Method: PREINCUBATION
  mutagenic call: inactive; negative
Test System: AMES SALMONELLA TYPHIMURIUM, Strain/Indicator: TA102, Metabolic Activation: NONE, Method: PREINCUBATION
  mutagenic call: inactive; negative
Test System: AMES SALMONELLA TYPHIMURIUM, Strain/Indicator: TA102, Metabolic Activation: RAT, LIVER, S-9, AROCLOR 1254, Method: PREINCUBATION
  mutagenic call: inactive; negative
Test System: E. coli, Strain/Indicator: WP2 IC185 trpE65, Metabolic Activation: None, Method: Plate incorporation (Test material solvent: ethanol)
  mutagenic call: inactive; negative
Test System: E. coli, Strain/Indicator: WP2 IC202 trpE65 oxyR/pKM101, Metabolic Activation: None, Method: Plate incorporation (Test material solvent: ethanol)
  mutagenic call: inactive; negative

## O=[N+]([O-])c1ccc(Oc2c(Cl)cc(Cl)cc2Cl)cc1
Test System: AMES SALMONELLA TYPHIMURIUM, Strain/Indicator: TA98, Metabolic Activation: NONE, Method: PREINCUBATION
  mutagenic call: inactive; negative
[1]
  mutagenic call: inactive; negative
Test System: AMES SALMONELLA TYPHIMURIUM, Strain/Indicator: TA98, Metabolic Activation: RAT LIVER S-9 (10%), PHENOBARBITAL AND 5,6-BENZOFLAVONE, Method: PREINCUBATION
  mutagenic call: inactive; negative
Test System: AMES SALMONELLA TYPHIMURIUM, Strain/Indicator: TA98, Metabolic Activation: S-9, Method: STANDARD PLATE
  mutagenic call: inactive; negative
Test System: AMES SALMONELLA TYPHIMURIUM, Strain/Indicator: TA100, Metabolic Activation: NONE, Method: PREINCUBATION
  mutagenic call: inactive; negative
[2]
  mutagenic call: inactive; negative
Test System: AMES SALMONELLA TYPHIMURIUM, Strain/Indicator: TA100, Metabolic Activation: RAT LIVER S-9 (10%), PHENOBARBITAL AND 5,6-BENZOFLAVONE, Method: PREINCUBATION
  mutagenic call: inactive; negative
Test System: AMES SALMONELLA TYPHIMURIUM, Strain/Indicator: TA100, Metabolic Activation: S-9, Method: STANDARD PLATE
  mutagenic call: inactive; negative
Test System: AMES SALMONELLA TYPHIMURIUM, Strain/Indicator: YG1021, Metabolic Activation: NONE, Method: STANDARD PLATE
  mutagenic call: inactive; negative
Test System: AMES SALMONELLA TYPHIMURIUM, Strain/Indicator: YG1021, Metabolic Activation: RAT LIVER S-9 (10%), PHENOBARBITAL AND 5,6-BENZOFLAVONE, Method: PREINCUBATION
  mutagenic call: inactive; negative
Test System: AMES SALMONELLA TYPHIMURIUM, Strain/Indicator: YG1021, Metabolic Activation: RAT, LIVER, S-9, PCB, Method: PREINCUBATION
  mutagenic call: active; positive
Test System: AMES SALMONELLA TYPHIMURIUM, Strain/Indicator: YG1021, Metabolic Activation: S-9, Method: STANDARD PLATE
  mutagenic call: inactive; negative
Test System: AMES SALMONELLA TYPHIMURIUM, Strain/Indicator: YG1024, Metabolic Activation: NONE, Method: PREINCUBATION
  mutagenic call: active; positive
Test System: AMES SALMONELLA TYPHIMURIUM, Strain/Indicator: YG1024, Metabolic Activation: NONE, Method: STANDARD PLATE
  mutagenic call: inactive; negative
Test System: AMES SALMONELLA TYPHIMURIUM, Strain/Indicator: YG1024, Metabolic Activation: RAT LIVER S-9 (10%), PHENOBARBITAL AND 5,6-BENZOFLAVONE, Method: PREINCUBATION
  mutagenic call: active; positive
Test System: AMES SALMONELLA TYPHIMURIUM, Strain/Indicator: YG1024, Metabolic Activation: RAT, LIVER, S-9, PHENOBARBITAL AND 5,6-BENZOFLAVONE, Method: PREINCUBATION
  mutagenic call: active; positive
Test System: AMES SALMONELLA TYPHIMURIUM, Strain/Indicator: YG1024, Metabolic Activation: S-9, Method: STANDARD PLATE
  mutagenic call: inactive; negative
Test System: AMES SALMONELLA TYPHIMURIUM, Strain/Indicator: YG1026, Metabolic Activation: NONE, Method: STANDARD PLATE
  mutagenic call: inactive; negative
Test System: AMES SALMONELLA TYPHIMURIUM, Strain/Indicator: YG1026, Metabolic Activation: RAT LIVER S-9 (10%), PHENOBARBITAL AND 5,6-BENZOFLAVONE, Method: PREINCUBATION
  mutagenic call: inactive; negative
Test System: AMES SALMONELLA TYPHIMURIUM, Strain/Indicator: YG1026, Metabolic Activation: RAT, LIVER, S-9, PCB, Method: PREINCUBATION
  mutagenic call: active; positive
Test System: AMES SALMONELLA TYPHIMURIUM, Strain/Indicator: YG1026, Metabolic Activation: S-9, Method: STANDARD PLATE
  mutagenic call: inactive; negative
Test System: AMES SALMONELLA TYPHIMURIUM, Strain/Indicator: YG1029, Metabolic Activation: NONE, Method: PREINCUBATION
  mutagenic call: inactive; negative
Test System: AMES SALMONELLA TYPHIMURIUM, Strain/Indicator: YG1029, Metabolic Activation: NONE, Method: STANDARD PLATE
  mutagenic call: active; positive
Test System: AMES SALMONELLA TYPHIMURIUM, Strain/Indicator: YG1029, Metabolic Activation: RAT LIVER S-9 (10%), PHENOBARBITAL AND 5,6-BENZOFLAVONE, Method: PREINCUBATION
  mutagenic call: active; positive
Test System: AMES SALMONELLA TYPHIMURIUM, Strain/Indicator: YG1029, Metabolic Activation: RAT, LIVER, S-9, AROCLOR 1254, Method: STANDARD PLATE
  mutagenic call: active; positive
Test System: AMES SALMONELLA TYPHIMURIUM, Strain/Indicator: YG1029, Metabolic Activation: RAT, LIVER, S-9, PHENOBARBITAL AND 5,6-BENZOFLAVONE, Method: PREINCUBATION
  mutagenic call: active; positive
Test System: AMES SALMONELLA TYPHIMURIUM, Strain/Indicator: YG1029, Metabolic Activation: S-9, Method: STANDARD PLATE
  mutagenic call: active; positive
